Laboratory results published in the Deep4Chem optical property database.

Assay: photoluminescence quantum yield (fraction); solvent given as SMILES

`Cc1ccc(-n2c(-c3ccc(N(c4ccc(-c5ccc(N(c6ccc(-c7nc8c9ccccc9c9ccccc9c8n7-c7ccc(C)cc7)cc6)c6ccc(-c7nc8c9ccccc9c9ccccc9c8n7-c7ccc(C)cc7)cc6)cc5)cc4)c4ccc(-c5nc6c7ccccc7c7ccccc7c6n5-c5ccc(C)cc5)cc4)cc3)nc3c4ccccc4c4ccccc4c32)cc1` gave a photoluminescence quantum yield (in ClCCl) of 0.282.

With `O=c1cc(C(F)(F)F)c2cc3c4c(c2o1)CCCN4CCC3` the photoluminescence quantum yield (in CCC#N) was 0.76, the photoluminescence quantum yield (in CCCCCCCl) was 0.95 and the photoluminescence quantum yield (in CCCCl) was 0.77. It also gave a photoluminescence quantum yield (in CCO) of 0.62 and a photoluminescence quantum yield (in OCC(F)(F)F) of 0.47.
